Source: PubChem BioAssay (NCI)
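These data come from cells grown in 96-well plates and exposed to compound for 48 hours at five concentrations. TGI denotes the concentration required for complete inhibition of growth.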

Experiments:
Test in all cases: growth of human tumour cells (NCI), 48 h
M14 melanoma = system: M14 melanoma
COLO 205 colon = system: COLO 205 colon
OVCAR-8 ovarian = system: OVCAR-8 ovarian
T-47D breast = system: T-47D breast
SF-539 CNS = system: SF-539 CNS
OVCAR-3 ovarian = system: OVCAR-3 ovarian
HL-60(TB) leukemia = system: HL-60(TB) leukemia
SNB-19 CNS = system: SNB-19 CNS
SK-MEL-28 melanoma = system: SK-MEL-28 melanoma
OVCAR-5 ovarian = system: OVCAR-5 ovarian

Row | Compound | TGI (M14 melanoma) | TGI (COLO 205 colon) | TGI (OVCAR-8 ovarian) | TGI (T-47D breast) | TGI (SF-539 CNS) | TGI (OVCAR-3 ovarian) | TGI (HL-60(TB) leukemia) | TGI (SNB-19 CNS) | TGI (SK-MEL-28 melanoma) | TGI (OVCAR-5 ovarian)
1 | CC1CC[C@@]2(OC1)OC1C[C@H]3[C@@H]4CC=C5C[C@@H](OC6OC(CO)C(OC7OC(CO)C(O)C(O)C7O)C(O)C6OC6OC(C)C(O)C(O)C6O)CC[C@]5(C)[C@H]4CC[C@]3(C)C1[C@@H]2C (stereo not given in full) | 0.859 µM | 0.91 µM | 1.79 µM | 1.21 µM | 0.88 µM | 1.7 µM | 1.97 µM | 3.92 µM | 1.02 µM | 4.58 µM
2 | CC(C)(C)OC(=O)N1CCC2(CC1)C(=O)NCN2c1ccccc1 | > 100 µM | > 100 µM | > 100 µM | > 100 µM | > 100 µM | > 100 µM | > 100 µM | > 100 µM | > 100 µM | > 100 µM
3 | CCOC1OC(C)(C=C(C#N)C#N)CCC1C (stereo not given) | > 100 µM | > 100 µM | > 68 µM | > 100 µM | 56.6 µM | > 71.6 µM | 80.4 µM | > 100 µM | > 100 µM | > 100 µM
4 | C[N+](C)([O-])C12CC3CC(CC(C3)C1)C2 | > 100 µM | 70.9 µM | > 100 µM | 85.7 µM | > 100 µM | 58 µM | > 100 µM | > 100 µM | > 100 µM | > 100 µM
5 | CSC1=C(C)C(/C=N/Nc2ccc([N+](=O)[O-])cc2)=C(C)N(c2ccccc2)S1(=O)=O | > 100 µM | > 100 µM | > 100 µM | > 100 µM | > 100 µM | > 100 µM | 17.5 µM | > 100 µM | > 100 µM | > 100 µM
6 | CC1OC23CCCCC2C(C#N)(C#N)C1(C#N)C(=N)O3 (stereo not given) | 40.3 µM | 38.5 µM | 54.1 µM | 53.6 µM | 45.1 µM | 36.5 µM | 22.1 µM | 65.2 µM | 56 µM | 52.6 µM
7 | Cc1c(C)c2c(c(N)c1C#N)C(=O)N(NC(=S)Nc1ccccc1)C2=O | > 100 µM | > 100 µM | > 100 µM | > 100 µM | > 100 µM | > 100 µM | > 100 µM | > 100 µM | > 100 µM | > 100 µM
8 | CCCCCCCCCCCCCCCC[N+](C)(C)CCl | 6.38 µM | 4.16 µM | 7.43 µM | 23.6 µM | 8.13 µM | 14.6 µM | 3.12 µM | 3.81 µM | > 50.7 µM | 21.6 µM
9 | Cc1cc(C)nc(NS(=O)(=O)c2ccc(NC(=O)c3ccc4nc5ccccc5c(Nc5ccc(S(=O)(=O)N=C(N)N)cc5)c4c3)cc2)n1 | > 100 µM | > 100 µM | > 100 µM | > 100 µM | > 100 µM | > 100 µM | > 100 µM | > 100 µM | > 100 µM | > 100 µM
10 | O=C(Nc1nnc(-c2ccccc2)o1)C(SC(=S)N1CCCC1)c1ccccc1 (stereo not given) | > 100 µM | > 100 µM | > 100 µM | > 100 µM | 91.8 µM | 74.4 µM | 48.1 µM | > 100 µM | > 100 µM | > 100 µM
11 | COc1cc2ccc(C(C)NCC#N)cc2cc1OC (stereo not given) | > 100 µM | > 100 µM | > 100 µM | > 100 µM | > 100 µM | > 100 µM | > 100 µM | > 100 µM | > 100 µM | > 100 µM
12 | COC1=C(OC)C(=O)C(Cc2c(-c3ccccc3)nc3sc(Cl)cn23)=C(C)C1=O | 33.7 µM | 33.5 µM | 32.9 µM | > 100 µM | 31.6 µM | 32 µM | 24.7 µM | 35.3 µM | 27 µM | 56.5 µM
